From US20030166922A1, “Novel cephalosporin compounds and process for preparing the same” (priority 2000, published 2003)
≈ marks a conversion by molar mass, not a printed value.

Tests used:
Assay in all cases: Minimum Inhibitory Concentration (MIC), agar dilution, standard strains
[1] = system: E. faecalis L239; assay type: cell-based; details: Table 1, Mueller-Hinton agar, 37° C., 20 hours; for MIC: Enterococcus faecalis, L239, read-out: Minimum Inhibitory Concentration (MIC), E. faecalis L239
Experimental: (§1) Minimum Inhibitory Concentration (MIC)
(§2) The effectiveness of the compound according to the present invention was determined by obtaining Minimum Inhibitory Concentration (MIC) of the compounds prepared by the above Examples (I-1 to I-33) and vancomycin, which is the known compound having a potent activity against gram-positive strains, as the control drug against the standard strains. Specifically, Minimum Inhibitory Concentration was obtained by diluting the test material with a double dilution method, dispersing them in Mueller-Hinton agar medium, inoculating each of the test strain having 10^7 cfu (colny forming unit) in an amount of 2:1 to the medium and then incubating them at 37° C. for 20 hours.

[2] = system: S. epidermidis R005; assay type: cell-based; details: Table 1, Mueller-Hinton agar, 37° C., 20 hours; for MIC: Staphylococcus epidermidis, R005, read-out: Minimum Inhibitory Concentration (MIC), S. epidermidis R005
Experimental: as §1, §2

[3] = system: Staphylococcus aureus giorgio; assay type: cell-based; details: Table 1, Mueller-Hinton agar, 37° C., 20 hours; for MIC: Staphylococcus aureus, read-out: Minimum Inhibitory Concentration (MIC), Staphylococcus aureus giorgio
Experimental: as §1, §2

[4] = system: S. aureus 241; assay type: cell-based, Staphylococcus aureus; details: Table 1, Mueller-Hinton agar, 37° C., 20 hours; for MIC: Staphylococcus aureus, 241, read-out: Minimum Inhibitory Concentration (MIC), S. aureus 241
Experimental: as §1, §2

[5] = system: S. aureus 77; assay type: cell-based, Staphylococcus aureus; details: Table 1, Mueller-Hinton agar, 37° C., 20 hours; for MIC: Staphylococcus aureus, 77, read-out: Minimum Inhibitory Concentration (MIC), S. aureus 77
Experimental: as §1, §2

Molecule | Minimum Inhibitory Concentration (MIC), E. faecalis L239 [1] | Minimum Inhibitory Concentration (MIC), S. epidermidis R005 [2] | Minimum Inhibitory Concentration (MIC), Staphylococcus aureus giorgio [3] | Minimum Inhibitory Concentration (MIC), S. aureus 241 [4] | Minimum Inhibitory Concentration (MIC), S. aureus 77 [5] | MIC [1] [mg/L] | MIC [2] [mg/L] | MIC [3] [mg/L] | MIC [4] [mg/L] | MIC [5] [mg/L]
Cc1c(N)nc(SCSC2=C(C(=O)O)N3C(=O)[C@@H](NC(=O)CSc4cc(Cl)ccc4Cl)[C@H]3SC2)nc1N [Example I-18, (6R,7R)-3-({[(4,6-diamino-5-methyl-2-pyrimidinyl)sulfanyl]methyl}sulfan-yl)-7-({2-[(2,5-dichlorophenyl)sulfanyl]acetyl}amino)-8-oxo-5-thia-1-azabicyclo[4.2.0]oc-t-2-ene-2-carb oxylic acid] | 0.5 :g/ml | 0.25 :g/ml | 0.016 :g/ml | 4 :g/ml | 0.25 :g/ml |  |  |  |  | 
Nc1nc(O)cc(SCSC2=C(C(=O)O)N3C(=O)[C@@H](NC(=O)CSc4c(Cl)cccc4Cl)[C@H]3SC2)n1 [Example I-3, (6R,7R)-3-({[(2-amino-6-hydroxy-4-pyrimidinyl)sulfanyl]methyl}sulfanyl)-7-({2-[(2,6-dic hlorophenyl)sulfanyl]acetyl}amino)-8-oxo-5-thia-1-azabicyclo[4.2.0]oct-2-ene-2-carboxylic acid] |  |  |  |  |  | 0.5 (≈ 0.824 µM) | 0.13 (≈ 0.214 µM) | < 0.008 | 8 (≈ 13.2 µM) | 0.25 (≈ 0.412 µM)
Nc1nc(SCSC2=C(C(=O)O)N3C(=O)[C@@H](NC(=O)CSc4cc(Cl)ccc4Cl)[C@H]3SC2)nc2c1CCC2 [Example I-9, (6R,7R)-3-({[(4-amino-6,7-dihydro-5H-cyclopenta[d]pyrimidin-2-yl)sulfany-1]methyl}sulfanyl)-7-({2-[(2,5-dichlorophenyl)sulfanyl]acetyl}amino)-8-oxo-5-thia-1-aza-bicyclo[4.2.0]oct-2-ene-2-carboxylic acid] | 0.25 :g/ml | 0.25 :g/ml | <0.008 :g/ml | 4 :g/ml | 0.25 :g/ml |  |  |  |  | 
Nc1nc(SCSC2=C(C(=O)O)N3C(=O)[C@@H](NC(=O)CSc4cc(Cl)ccc4Cl)[C@H]3SC2)nc2cn[nH]c12 [Example I-13, (6R,7R)-3-({[(7-amino-1H-pyrazolo [4,3-d]pyrimidin-5-yl)sulfanyl]methy-1}sulfanyl)-7-({2-[(2,5-dichlorophenyl)sulfanyl]acetyl}amino)-8-oxo-5-thia-1-azabicyc-lo[4.2.0]oct-2-ene-2-carboxylic acid] | 0.25 :g/ml | 0.13 :g/ml | <0.008 :g/ml | 2 :g/ml | 0.13 :g/ml |  |  |  |  | 
(6R,7R)-2,4-diamino-6-[({[2-carboxy-7-({2-[(2,5-dichlorophenyl)sulfany-1]acetyl}amino)-8-oxo-5-thia-1-azabicyclo[4.2.0]oct-2-en-3-yl]sulfanyl}methyl)sulfanyl]-1-ethyl-1,3,5-tria zine-1,3-diium [Example I-20] | 0.5 :g/ml | 0.5 :g/ml | <0.008 :g/ml | 8 :g/ml | 1 :g/ml |  |  |  |  | 
CN(CC(=O)N[C@@H]1C(=O)N2C(C(=O)O)=C(SCSc3cc(N)nc(N)n3)CS[C@H]12)c1cc(Cl)ccc1Cl [Example I-6, (6R,7R)-3-({[(2,6-diamino-4-pyrimidinyl)sulfanyl]methyl}sulfanyl)-7-({2-[2,5-dichloro(methyl)anilino]acetyl}amino)-8-oxo-5-thia-1-azabicyclo[4.2.0]oct-2-ene-2-carboxylic acid] | 4 :g/ml | 0.5 :g/ml | 0.031 :g/ml | 8 :g/ml | 0.5 :g/ml |  |  |  |  | 
Nc1cc(N)nc(SCSC2=C(C(=O)O)N3C(=O)[C@@H](NC(=O)CSc4cc(Cl)ccc4Cl)[C@H]3SC2)n1 [Example I-16, (6R,7R)-3-({[(4,6-diamino-2-pyrimidinyl)sulfanyl]methyl}sulfanyl)-7-({2-[(2,5-dichlorophenyl)sulfanyl]acetyl}amino)-8-oxo-5-thia-1-azabicyclo[4.2.0]oct-2-ene-2-carboxylic acid] |  |  |  |  |  | 0.5 (≈ 0.826 µM) | 0.063 (≈ 0.104 µM) | < 0.008 | 2 (≈ 3.3 µM) | 0.25 (≈ 0.413 µM)
CCSc1nc(C)cc(SCSC2=C(C(=O)O)N3C(=O)[C@@H](NC(=O)CSc4cc(Cl)ccc4Cl)[C@H]3SC2)n1 [Example I-12, (6R,7R)-7-({2-[(2,5-dichlorophenyl)sulfanyl]acetyl}amino)-3-[({[2-(ethylsul-fanyl)-6-methyl-4-pyrimidinyl]sulfanyl}methyl)sulfanyl]-8-oxo-5-thia-1-azabicyclo[4.2. 0]oct-2-ene-2-carboxylic acid] | 0.25 :g/ml | 0.5 :g/ml | 0.031 :g/ml | 4 :g/ml | 0.5 :g/ml |  |  |  |  | 
CSc1nc(C)cc(SCSC2=C(C(=O)O)N3C(=O)[C@@H](NC(=O)CSc4cc(Cl)ccc4Cl)[C@H]3SC2)n1 [Example I-22, (6R,7R)-7-({2-[(2,5-dichlorophenyl)sulfanyl]acetyl}amino)-3-[({[6-methyl-2-(methylsulfanyl)-4-pyrimidinyl]sulfanyl}methyl)sulfanyl]-8-oxo-5-thia-1-azabicyclo[4.2. 0]oct-2-ene-2-carboxylic acid] |  |  |  |  |  | 0.25 (≈ 0.393 µM) | 0.25 (≈ 0.393 µM) | < 0.008 | 4 (≈ 6.29 µM) | 0.5 (≈ 0.787 µM)
Nc1cc[n+](N)c(SCSC2=C(C(=O)O)N3C(=O)[C@@H](NC(=O)CSc4cc(Cl)ccc4Cl)[C@H]3SC2)n1 [Example I-7, 1,4-diamino-2-[({[(6R,7R)-2-carboxy-7-({2-[(2,5-dichlorophenyl)sulfanyl]ac-etyl}amino)-8-oxo-5-thia-1-azabicyclo[4.2.0]oct-2-en-3-yl)sulfanyl}methyl)sulfanyl]pyri-midin-1-ium] | 0.13 :g/ml | 0.063 :g/ml | <0.008 :g/ml | 2 :g/ml | 0.13 :g/ml |  |  |  |  | 
Nc1cc(SCSC2=C(C(=O)O)N3C(=O)[C@@H](NC(=O)CNc4cc(Cl)ccc4Cl)[C@H]3SC2)nc(N)n1 [Example I-5] | 1 :g/ml | 0.5 :g/ml | 0.016 :g/ml | 8 :g/ml | 0.5 :g/ml |  |  |  |  | 
Nc1nc(SCSC2=C(C(=O)O)N3C(=O)[C@@H](NC(=O)CSc4cc(Cl)ccc4Cl)[C@H]3SC2)c2c([n+]1N)CCC2 [Example I-11, (6R,7R)-1 ,2-diamino-4-[({(E)-3-[2-carboxy-7-({2-[(2,5-dichlorophenyl)sulf-anyl]acetyl}amino)-8-oxo-5-thia-1-azabicyclo[4.2.0]oct-2-en-3-yl]sulfanyl}methyl)sulfan-yl]-6,7-dihyd ro-5H-cyclopenta[d]pyrimidin-1-ium] | 0.25 :g/ml | 0.063 :g/ml | <0.008 :g/ml | 1 :g/ml | 0.063 :g/ml |  |  |  |  | 
Nc1cc(SCSC2=C(C(=O)O)N3C(=O)[C@@H](NC(=O)CSc4cc(Cl)ccc4Cl)[C@H]3SC2)nc(N)n1 [Example I-1, (6R,7R)-3-({[(2,6-diamino-4-pyrimidinyl)sulfanyl]methyl}sulfanyl)-7-({2-[(2,5-dichlorophenyl)sulfanyl]acetyl}amino)-8-oxo-5-thia-1-azabicyclo[4.2.0]oct-2-ene-2-carboxylic acid] |  |  |  |  |  | 0.25 (≈ 0.413 µM) | 0.063 (≈ 0.104 µM) | < 0.008 | 1 (≈ 1.65 µM) | 0.063 (≈ 0.104 µM)
Nc1cc(N)[n+](N)c(SCSC2=C(C(=O)O)N3C(=O)[C@@H](NC(=O)CSc4cc(Cl)ccc4Cl)[C@H]3SC2)n1 [Example I-10, (6R,7R)-1,4,6-triamino-2-[({[2-carboxy-7-({2-[(2,5-dichlorophenyl)sulfany-1]acetyl}amino)-8-oxo-5-thia-1-azabicyclo[4.2.0]oct-2-en-3-yl]sulfanyl}methyl)sulfanyl]p-yrimidin-1-iu m] | 0.5 :g/ml | 0.13 :g/ml | <0.008 :g/ml | 4 :g/ml | 0.25 :g/ml |  |  |  |  | 
